Measured values reported in ChEMBL document CHEMBL3243950, “New inhibitors of steroid 11beta-hydroxylase. Structure--activity relationship studies of metyrapone-like compounds” (J Med Chem, 1977).

Experiments:
[1] = molecular target: T1, Cytochrome P450 11B1, mitochondrial (Bos taurus, UniProt P15150); experiment: Inhibition of bovine adrenal gland 11beta-hydroxylase assessed as inhibition of [14C]-deoxycorticosterone hydroxylation at 2 uM relative to metyrapone; settings: cattle
T1 sequence (P15150 whole entry): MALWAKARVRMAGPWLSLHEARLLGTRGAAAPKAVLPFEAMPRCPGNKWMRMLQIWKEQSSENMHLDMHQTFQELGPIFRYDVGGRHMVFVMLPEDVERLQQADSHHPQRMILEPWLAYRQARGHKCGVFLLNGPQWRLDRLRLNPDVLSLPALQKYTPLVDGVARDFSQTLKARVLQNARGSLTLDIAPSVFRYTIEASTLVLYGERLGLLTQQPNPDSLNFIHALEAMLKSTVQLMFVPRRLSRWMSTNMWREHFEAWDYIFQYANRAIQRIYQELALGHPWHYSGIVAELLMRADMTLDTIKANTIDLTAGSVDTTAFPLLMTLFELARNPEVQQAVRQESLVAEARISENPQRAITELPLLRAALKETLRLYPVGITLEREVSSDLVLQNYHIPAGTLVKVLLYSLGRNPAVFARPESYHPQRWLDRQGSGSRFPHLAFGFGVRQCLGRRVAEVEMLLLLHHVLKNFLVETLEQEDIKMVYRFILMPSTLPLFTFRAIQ

[2] = molecular target: T1, Cytochrome P450 11B1, mitochondrial; experiment: Inhibition of bovine adrenal gland 11beta-hydroxylase assessed as inhibition of [14C]-deoxycorticosterone hydroxylation at 2 uM; settings: cattle
[3] = molecular target: T1, Cytochrome P450 11B1, mitochondrial; experiment: Inhibition of bovine adrenal gland 11beta-hydroxylase assessed as inhibition of [14C]-deoxycorticosterone hydroxylation
[4] = molecular target: T1, Cytochrome P450 11B1, mitochondrial; experiment: Inhibition of bovine adrenal gland 11beta-hydroxylase assessed as amount of corticosterone production using 22 nmol [14C]-deoxycorticosterone measured per 5 mins at 2 nmol; settings: cattle
[5] = molecular target: T1, Cytochrome P450 11B1, mitochondrial; experiment: Inhibition of bovine adrenal gland 11beta-hydroxylase assessed as amount of corticosterone production using 22 nmol [14C]-deoxycorticosterone measured per 5 mins at 2 nmol (reference value: 1.3 +/- 0.04 nmol); settings: cattle
[6] = molecular target: T1, Cytochrome P450 11B1, mitochondrial; experiment: Inhibition of bovine adrenal gland 11beta-hydroxylase assessed as amount of corticosterone production using 11 nmol [14C]-deoxycorticosterone measured per 5 mins at 2 nmol; settings: cattle
[7] = molecular target: T1, Cytochrome P450 11B1, mitochondrial; experiment: Inhibition of bovine adrenal gland 11beta-hydroxylase assessed as amount of corticosterone production using 11 nmol [14C]-deoxycorticosterone measured per 5 mins at 2 nmol (reference value: 1.3 +/- 0.04 nmol); settings: cattle

| SMILES | Ratio [1] | inhibition at 2 µM [2] [%] | also measured |
| --- | --- | --- | --- |
| OC(c1cccnc1)C(c1ccccc1)c1cccnc1 (racemic) | 0.13 | 9 |  |
| OC(c1ccccc1)C(c1ccccc1)c1cccnc1 (stereo not drawn) | 0.65 | 44 |  |
| CC(C)(c1cccnc1)C(O)c1cccnc1 (stereo not drawn) [METYRAPOL] | 0.65 | 44 |  |
| O=C(c1ccccc1)C(c1ccccc1)c1cccnc1 (stereo not drawn) | 0.32 | 22 |  |
| CC(C)(C(=O)c1cccnc1)c1cccnc1 [METYRAPONE] | 1 | 68 | Ki [3]: 0.58 µM; inhibition (INH) [4]: 68%; Activity [5]: 0.74 nmol; inhibition (INH) [6]: 70%; Activity [7]: 0.39 nmol |
| OC(Cc1cccnc1)c1cccnc1 (racemic) | 0.1 | 7 |  |
| O=C(c1cccnc1)C(c1ccccc1)c1ccccc1 | 0.22 | 15 |  |
| C[C@@H](c1cccnc1)[C@@H](O)c1cccnc1 (relative stereo) | 0.41 | 28 |  |
| O=C(c1cccnc1)C(c1ccccc1)c1cccnc1 (stereo not drawn) | 0.52 | 35 |  |
| OC(c1cccnc1)C(c1ccccc1)c1ccccc1 (stereo not drawn) | 0.25 | 17 |  |

Further lines, with some results ahead:

| Ratio [1] | inhibition at 2 µM [2] [%] | SMILES | also measured |
| --- | --- | --- | --- |
| 0.65 | 44 | CC(C(=O)c1ccccc1)c1cccnc1 (stereo not drawn) |  |
| 0.13 | 9 | O=C(Cc1ccccc1)c1cccnc1 |  |
| 0.22 | 15 | O=C(Cc1cccnc1)c1ccccc1 |  |
| 0.19 | 13 | CC(C(=O)c1cccnc1)c1ccccc1 (stereo not drawn) |  |
